What was measured:
CD8+ T cells = assay: Flow cytometric analysis of viability, proliferation and memory subsets of CD8+ T cells; format: cell-based; settings: 10 μM, 24 h
Description: FIG. 11. […] Naïve CD8+ T cells were stimulated with plate-bound anti-CD3/CD28 antibodies for 24 h in the presence of 10 μM FPL64176 or carrier control before flow cytometric analysis (FIG. 11A-D). (A) Quantitative analysis of live cell numbers. (B) Percentage of cells positive for the apoptotic marker Apotracker™ Green. (C) Percentage of cells positive for cell viability dye DAPI. (D) Analysis of T cell subsets based on the expression of CD44 and CD62L: CD44− CD62L+ (naïve), CD44+ CD62L+ (central memory), and CD44+ CD62L− (effector memory). (FIG. 11E-G) CTLs were restimulated on day 10 with plate-bound anti-CD3 antibody for 24 h in the presence of 10 μM FPL64176 or carrier control before flow cytometric analysis. (E) Quantitative analysis of live cell numbers. (F) Percentage of cells positive for the apoptotic marker Apotracker™ Green. (G) Percentage of cells positive for the cell viability dye DAPI. […]
(§1) To ensure that the use of L-type Cav agonist is not adversely affecting immune cells, general cell functions were assessed. […]

EL-4 tumour cells = assay: LDH cytotoxicity assay, OT-I CD8+ CTLs co-cultured with Ova peptide-pulsed EL-4 target cells; format: cell-based, murine; settings: 10 μM, over a range of effector-to-target ratios, vs carrier control
Description: FIG. 1. L-type Cav channel agonists increase Gli1 expression and enhance specific cell killing by murine CD8+ CTLs. CD8^+ T cells were isolated from the spleen and inguinal lymph nodes of Rag2^−/− OT-I mice, and CTLs were generated. (A) Cells were restimulated on day 9/10 for 3 hours using plate-bound anti-CD3ε in the presence of indicated concentrations of FPL 64176 or carrier control. RNA was extracted and Gli1 expression was assessed by qRT-PCR. Data is n=3 independent experiments. us=unstimulated cells. (B) An LDH cytotoxicity assay was performed using OT-I CTLs. On day 7, CTLs were co-cultured with Ova peptide-pulsed EL-4 cells in the presence of 10 μM FPL 64176 (squares) or carrier control (circles). Data is n=4 independent experiments. (C) Updated experiment of (A). Data is now n=4 independent experiments. Data is normalised to Tbp as a reference gene. 0h=unstimulated cells. (D) Same data as (B) represented differently. […] Error bars indicate SD. p values were calculated using an unpaired two-tailed Student's t test (C) or a two-way ANOVA (B/D). * indicates p<0.05, ** indicates p<0.01, **** indicates p<0.0001.
FIG. 11. […] (A) Quantitative analysis of live cell numbers. […] (E) Quantitative analysis of live cell numbers. […]
as §1

[1] = test system: L-type voltage gated Ca^2+ channel; assay: Calcium flux after TCR crosslinking in murine CD8+ CTLs; format: cell-based
Description: FIG. 14. […] Murine CD8^+ CTLs were loaded with Calcium Sensor Dye eFluor™ 514, anti-CD3ε antibodies and calcium channel inhibitors/agonist. Other Calcium channels expressed in CD8 T cells were inhibited: “Block”=BTP2 inhibits CRAC channels downstream of the TCR, and BCTC inhibits TRPV channels. […] T cell receptor (TCR) crosslinking was induced 30 s after the start of sample acquisition by adding antibodies to crosslink the TCR. Arrows indicate the initiation of the calcium flux following TCR crosslinking. The line indicates the baseline fluorescence of the Calcium Sensor Dye eFluor™ 514. Data shown is representative of two independent experiments.

In the case of `COC(=O)c1c(C)[nH]c(C)c1C(=O)c1ccccc1Cc1ccccc1` [FPL 64176], the “memory phenotypes (CD44/CD62L subsets)” value (CD8+ T cells; naïve CD8+ T cells stimulated with anti-CD3/CD28) is reported as “does not affect”, the “viability or proliferation of naïve and cytotoxic CD8+ T cells” value (CD8+ T cells; live cell numbers, Apotracker Green, DAPI) is reported as “does not impair” and the “improvement of specific cell killing of EL-4 tumour cells” value (EL-4 tumour cells) is reported as “at least 100%”. For the same compound, the “initiation of Ca^2+ flux following TCR crosslinking” value [1] was “accelerates” and the “Cav-mediated Ca^2+ flux” value ([1]; CRAC and TRPV channels blocked with BTP2 and BCTC) was “specifically increases”.

Source: patent US20250222028A1, “ENGINEERED IMMUNE CELL PLATFORM” (Cancer Research Technology Limited, priority 2022, published 2025)
